Where two headings read alike, the source gives them in different places.
What was measured:
[1] = system: MDA-MB 231 triple negative breast cancer cell line; experiment: MDA-MB 231 protein expression inhibition (Western blotting, cycline D1 vs Vinculin); type: cell-based; details: Homo sapiens, compound 10 μM, 72 hours, cycline D1 Western blot, read-out: MBA-MB-231 (amount of the protein compared to the DMSO-treated control group)
Description: In order to confirm the ability of the compound represented by formula 1 according to the present invention to inhibit the protein expression of MDA-MB 231 triple negative breast cancer cell line, the following experiment was performed, and the results are shown in Table 3 below.
MDA-MB-231 cells were cultured in a 5% CO2 incubator at 37° C. using RPMI medium supplemented with 10% FBS and 1% penicillin/streptomycin.
The cells were washed with PBS once a day, and then replaced with a new medium. The cells grown at the density of at least 90% 1 day before the experiment were detached using trypsin/EDTA, and then plated at the density of 100,000 per well in a 6-well plate.
On the next day of culture, the compound prepared in each example was treated at a concentration of 10 μM, and DMSO was treated at a concentration of 0.1% of the total as the control, followed by incubation for 72 hours. After 72 hours, the cells were washed twice with PBS, collected by scraping, and centrifuged at 13,000 rpm for 3 minutes to remove all the supernatant and only cells were taken.
RIPA buffer (containing 1× protease inhibitor and phosphatase inhibitor) was added to the prepared cells (80 μl/well), and the plate was shaken once every 5 minutes to disrupt the cells for a total of 15 minutes. The disrupted cells were centrifuged at 13,000 rpm for 15 minutes to collect only the supernatant protein. The obtained protein was quantified using a BCA protein quantification kit (Pierece, MA, USA), and a total of 10 μg of the protein was used for Western blotting.
The protein sample was isolated by 10% SDS-PAGE, and transferred to a PVDF membrane. Anti-human cycline D1 antibody (Cell signal) and anti-Vinculin antibody were bound to the protein sample, and the expression of the protein was measured by using an ECL reagent and LAS4000 equipment. The measurement results were quantified and generalized using ImageJ. The results are shown in Table 3 below by dividing the grades A to D according to the amount of the protein compared to the DMSO-treated control group.

Pin1 = biological target: T1, Pin1 (Homo sapiens, UniProt Q13526); experiment: Evaluation of Pin1 enzyme inhibitory activity (Sensolyte Green Pin1 assay kit); type: biochemical
T1 construct: purchased Anaspec
How it was run: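 Pin1 activity was measured with a fluorogenic kit assay (Sensolyte Green) using substrate prepared at 1 μM and protein at 50 μg/ml, both pre-mix concentrations. Compound working solutions were 100, 10, 1 or 0.1 μM, and reactions ran 2 h at room temperature in the dark, read at 490/520 nm. Inhibition was graded A–D by concentration.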

[2] = system: A2780-SP cells (ovarian cancer stem cells); experiment: Sphere cell viability of A2780-SP cells (Cell-titer Glo); type: cell-based
How it was run: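 A2780-SP ovarian cancer stem cells grown as spheres in ultra-low-attachment wells (1,500 cells/well) in neurobasal stem-cell medium with bFGF, EGF, B27. Compound added the day after plating, re-dosed on day 4, 8-day culture total; viability by CellTiter-Glo luminescence.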

[3] = system: A2780 cells (ovarian cancer cells); experiment: Cell viability of A2780 cells (Cell-titer Glo); type: cell-based; details: Homo sapiens
How it was run: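 A2780 ovarian cancer cells seeded at 3000 viable cells/well in RPMI-1640 with 10% FBS, dosed the next day and grown 3 days. Viability measured by Cell-titer Glo luminescence.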

[4] = concentration at which the Pin1 enzyme activity is inhibited, 2 hours at room temperature, fluorescence 490 nm/520 nm, read-out: Pin 1 inhibition
[5] = 192 h, sphere cell viability, culture for 8 days, read-out: A2780-SP
[6] = Table 5, read-out: the concentration (second list of b710, cell line not named; matches A2780-SP column)
[7] = Table 2, read-out: concentration at which Pin1 inhibitory activity was exhibited
[8] = 72 h, cell viability, culture for 3 days, read-out: A2780
[9] = A2780, Table 5, read-out: A2780 cell concentration

T1 sequence (Q13526 whole entry): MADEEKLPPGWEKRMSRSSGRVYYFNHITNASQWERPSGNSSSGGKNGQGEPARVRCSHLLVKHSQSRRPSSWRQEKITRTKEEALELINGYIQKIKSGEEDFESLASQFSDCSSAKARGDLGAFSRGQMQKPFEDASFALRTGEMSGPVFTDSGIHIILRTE

Structure (SMILES) | activity at 10 µM [1] [%] | IC50 (Pin1; [4]) [nM] | IC50 [2, 5] [nM] | IC50 [2, 6] [nM] | IC50 (Pin1; [7]) [nM] | IC50 [3, 8] [µM] | IC50 [3, 9] [µM]
CN(C)CCCOc1ccc(S(=O)(=O)NCCCc2c[nH]c3ccccc23)cc1 [Example 22, N-(3-(1H-indol-3-yl)propyl)-4-(3-(dimethylamino)propoxy)benzenesulfonamide] | 70 to 100 | 10000 to 100000 | – | – | – | – | –
CN1CCN(CCCOc2ccc(S(=O)(=O)NCCCc3c[nH]c4ccccc34)cc2)CC1 [Example 31, N-(3-(1H-indol-3-yl)propyl)-4-(3-(4-methylpiperazin-1-yl)propoxy)benzenesulfonamide] | 50 to 70 | 1000 to 10000 | – | – | – | – | –
CCN(CC)CCCOc1ccc(S(=O)(=O)NCCCc2c[nH]c3ccccc23)cc1 [Example 35, N-(3-(1H-indol-3-yl)propyl)-4-(3-(diethylamino)propoxy)benzenesulfonamide] | 0 to 35 | 10000 to 100000 | – | – | – | – | –
CCN1CCN(CCCOc2ccc(S(=O)(=O)NCCCc3c[nH]c4ccccc34)cc2)CC1 [Example 36, N-(3-(1H-indol-3-yl)propyl)-4-(3-(4-ethylpiperazin-1-yl)propoxy)benzenesulfonamide] | 70 to 100 | 1000 to 10000 | – | – | – | – | –
O=C1CCCN1CCCOc1ccc(S(=O)(=O)NCCCc2c[nH]c3ccccc23)cc1 [Example 44, N-(3-(1H-indol-3-yl)propyl)-4-(3-(2-oxopyrrolidin-1-yl)propoxy)benzenesulfonamide] | 70 to 100 | > 100000 | – | – | – | – | –
O=S(=O)(NCCCc1c[nH]c2ccccc12)c1ccc(OCCCN2CCNCC2)cc1 [Example 45, N-(3-(1H-indol-3-yl)propyl)-4-(3-(piperazin-1-yl)propoxy)benzenesulfonamide] | 70 to 100 | 1000 to 10000 | – | – | – | – | –
CN1CCC(CCOc2ccc(S(=O)(=O)NCCCc3c[nH]c4ccccc34)cc2)CC1 [Example 55, N-(3-(1H-indol-3-yl)propyl)-4-(2-(1-methylpiperidin-4-yl)ethoxy)benzenesulfonamide] | 70 to 100 | 10000 to 100000 | – | – | – | – | –
CN1CCN(CCCOc2ccc(S(=O)(=O)NCCCc3c[nH]c4ccc(F)cc34)cc2)CC1 [Example 56, N-(3-(5-fluoro-1H-indol-3-yl)propyl)-4-(3-(4-methylpiperazin-1-yl)propoxy)benzenesulfonamide] | 35 to 50 | < 1000 | < 1000 | < 1000 | < 1000 | 1 to 10 | < 10
CN1CCN(CCCOc2ccc(S(=O)(=O)N3CCC(c4c[nH]c5ccccc45)CC3)cc2)CC1 [Example 57, 3-(1-((4-(3-(4-methylpiperazin-1-yl)propoxy)phenyl)sulfonyl)piperidin-4-yl)-1H-indole] | 70 to 100 | 10000 to 100000 | – | – | – | – | –
Cc1[nH]c2ccccc2c1CCCNS(=O)(=O)c1ccc(OCCCN2CCN(C)CC2)cc1 [Example 58, N-(3-(2-methyl-1H-indol-3-yl)propyl)-4-(3-(4-methylpiperazin-1-yl)propoxy)benzenesulfonamide] | 70 to 100 | 1000 to 10000 | – | – | – | – | –
CN1CCC(CCCOc2ccc(S(=O)(=O)NCCCc3c[nH]c4ccc(F)cc34)cc2)CC1 [Example 59, N-(3-(5-fluoro-1H-indol-3-yl)propyl)-4-(3-(1-methylpiperidin-4-yl)propoxy)benzenesulfonamide] | 35 to 50 | 1000 to 10000 | < 1000 | < 1000 | – | 1 to 10 | < 10
CN1CCC(CCCOc2ccc(S(=O)(=O)NCCCc3c[nH]c4ccccc34)cc2)CC1 [Example 60, N-(3-(1H-indol-3-yl)propyl)-4-(3-(1-methylpiperidin-4-yl)propoxy)benzenesulfonamide] | 50 to 70 | 1000 to 10000 | – | – | – | – | –
O=S(=O)(NCCCc1c[nH]c2ccc(Cl)cc12)c1ccc(OCCCN2CCC(Cl)CC2)cc1 [Example 78, N-(3-(5-chloro-1H-indol-3-yl)propyl)-4-(3-(4-chloropiperidin-1-yl)propoxy)benzenesulfonamide] | 0 to 35 | 1000 to 10000 | – | – | – | – | –
O=S(=O)(NCCCc1c[nH]c2ccc(Cl)cc12)c1ccc(OCCCN2CCC(F)CC2)cc1 [Example 80, N-(3-(5-chloro-1H-indol-3-yl)propyl)-4-(3-(4-fluoropiperidin-1-yl)propoxy)benzenesulfonamide] | 35 to 50 | 1000 to 10000 | – | – | – | – | –
O=S(=O)(NCCCc1c[nH]c2ccc(Cl)cc12)c1ccc(OCCCN2CCC(C(F)(F)F)CC2)cc1 [Example 81, N-(3-(5-chloro-1H-indol-3-yl)propyl)-4-(3-(4-(trifluoromethyl)piperidin-1-yl)propoxy)benzenesulfonamide] | 0 to 35 | 1000 to 10000 | – | – | – | – | –
O=S(=O)(NCCCc1c[nH]c2ccc(Cl)cc12)c1ccc(OCCCN2CCC(F)(F)CC2)cc1 [Example 82, N-(3-(5-chloro-1H-indol-3-yl)propyl)-4-(3-(4,4-difluoropiperidin-1-yl)propoxy)benzenesulfonamide] | 70 to 100 | 1000 to 10000 | – | – | – | – | –
CN1CCN(CCCOc2ccc(S(=O)(=O)NCCCc3c[nH]c4ccc(Cl)cc34)c3ccccc23)CC1 [Example 86, N-(3-(5-chloro-1H-indole-3-yl)propyl)-4-(3-(4-methylpiperazine-1-yl)propoxy)naphthalene-1-sulfonamide] | 70 to 100 | < 1000 | – | – | < 1000 | – | –
O=S(=O)(NCCCc1c[nH]c2ccc(Cl)cc12)c1ccc(CCCOc2ccncc2)cc1 [Example 185, N-(3-(5-chloro-1H-indole-3-yl)propyl)-4-(3-(pyridine-4-yloxy)propyl)benzenesulfonamide] | – | < 1000 | > 10000 | – | < 1000 | > 10 | –
CN1CCN(CCCc2ccc(S(=O)(=O)NCCCc3c[nH]c4ccc(Cl)cc34)cc2)CC1 [Example 186, N-(3-(5-chloro-1H-indol-3-yl)propyl)-4-(3-(4-methylpiperazin-1-yl)propyl)benzenesulfonamide] | – | < 1000 | < 1000 | < 1000 | < 1000 | > 10 | –
CN1CCN(CCCOc2ccc(S(=O)(=O)NCC3CCc4[nH]c5ccc(F)cc5c4C3)cc2)CC1 (stereo not shown) [Example 187, N-((6-fluoro-2,3,4,9-tetrahydro-1H-carbazol-3-yl)methyl)-4-(3-(4-methylpiperazin-1-yl)propoxy)benzenesulfonamide] | – | < 1000 | < 1000 | < 1000 | < 1000 | > 10 | –
O=S(=O)(NCC1CCc2[nH]c3ccc(F)cc3c2C1)c1ccc(OCCCN2CCNCC2)cc1 (stereo not shown) [Example 188, N-((6-fluoro-2,3,4,9-tetrahydro-1H-carbazol-3-yl)methyl)-4-(3-(piperazin-1-yl)propoxy)benzenesulfonamide] | – | < 1000 | < 1000 | < 1000 | < 1000 | > 10 | –
CN1CCN(CCCOc2ccc(S(=O)(=O)NCC3CCc4[nH]c5ccccc5c4C3)cc2)CC1 (stereo not shown) [Example 189, 4-(3-(4-methylpiperazin-1-yl)propoxy)-N-((2,3,4,9-tetrahydro-1H-carbazol-3-yl)methyl)benzenesulfonamide] | – | < 1000 | < 1000 | < 1000 | < 1000 | > 10 | –
O=S(=O)(NCC1CCc2[nH]c3ccccc3c2C1)c1ccc(OCCCN2CCNCC2)cc1 (stereo not shown) [Example 190, 4-(3-(piperazin-1-yl)propoxy)-N-((2,3,4,9-tetrahydro-1H-carbazol-3-yl)methyl)benzenesulfonamide] | – | < 1000 | < 1000 | < 1000 | < 1000 | > 10 | –

— patent publication US12583818B2 (DAEGU-GYEONGBUK MEDICAL INNOVATION FOUNDATION, priority 2020, dated 2026)
